What was measured:
DS-mice [1] = assay: Analgesic activity (Writhing method), phenylquinone-induced writhing in mice; assay type: in vivo; details: Mus musculus, ip, 0.25 h, phenylquinone i.p. 0.2 mg/10 g, 15 minutes, up-and-down method, read-out: Analgesic action, Writhing (ED50)
Description: 1. Analgesic activity (Writhing method);
DS-mice (15 to 17 g body weight, male and female) are treated with an intraperitoneal injection of 0.2 mg/10 g of 0.02 % phenylquinone solution as a writhing inducer and kept in an individual observation cage for 15 minutes after the administration of phenylquinone. […] The ED50 is calculated by the up-and-down method of Brownlee et al. [Fed.

DS-mice [2] = assay: Analgesic activity (Haffner method), tail-root pinch in mice; assay type: in vivo; details: Mus musculus, tail-root pinch with forceps, no withdrawal response within 3 seconds, Bliss' method, read-out: Analgesic action, Haffner (ED50)
Description: 2. Analgesic activity (Haffner method);
The tail-roots of DS-mice (15 to 17 g body weight, male and female) are pinched with a pair of forceps. Pain responses, such as biting, head turning and vocalization are observed. All of the control animals respond to the noxious stimulus with in a period of one second. […] The ED50 is calculated by the Bliss' method [Ann. Appl. Biol., 22, 134; 307 (1935); Quat. J. Pharmacol., 11, 192 (1938)].

[3] = Acute toxicity (mortality, LD50) in mice; details: mouse, in vivo; DS-mice; mortality during 72 hours after administration; Bliss' method
Description: Ten DS-mice (15 to 17 g body weight, male and female) in every group are used in the test at each dose level. Each assay compound is tested in 4 to 5 doses. The mortality is counted during a period of 72 hours after the administration of the test compound. The LD50 is calculated by the Bliss' method.

Compound | ED50 (DS-mice [1]) [mg/kg] | ED50 (DS-mice [2]) [mg/kg] | LD50 at 72 h [3] [mg/kg]
Cc1c(N(C)C)c(=O)n(-c2ccccc2)n1C [Aminopyrine, reference compound] | 44 | 138 | 335
CN1CCc2ccc(O)cc2CCc2ccc(O)c(O)c2C1 [Compound 1] | 26 |  | 50 to 100
Br.CN1CCc2cc(O)ccc2CCc2ccc(O)c(O)c2C1 [Compound 6, 6-Methyl-3,4,10-trihydroxy-5,6,7,8,13,14-hexahydrodibenz[c,g]azecine hydrobromide] | 75 |  | 300
COc1ccc2c(c1OC)CNCCc1cc(O)ccc1CC2 [Compound 7, 3,4-dimethoxy-10-hydroxy-5,6,7,8,13,14-hexahydrodibenz[c,g]azecine] | 26.5 | 250 | 500
CN1CCc2ccc(O)cc2CCc2cccc(O)c2C1.[O-][Cl+3]([O-])([O-])O [Compound 5, 4,11-Dihydroxy-6-methyl-5,6,7,8,13,14-hexahydrodibenz[c,g]azecine perchlorate] | 50 |  | 300
COc1ccc2c(c1OC)CN(C)CCc1cc(O)ccc1CC2 [Compound 3, 3,4-Dimethoxy-10-hydroxy-6-methyl-5,6,7,8,13,14-hexahydrodibenz[c,g]azecine] | 22.3 | 37.9 | 231
COc1ccc2c(c1OC)CN(C)CCc1ccc(O)cc1CC2 [Compound 2, 3,4-Dimethoxy-11-hydroxy-6-methyl-5,6,7,8.13,14-hexahydrodibenz[c,g]azecine] | 23.2 | 58 | 54.9
COc1ccc2c(c1OC)CN(C)CCc1cc(CO)c(O)cc1CC2 [Compound 4, 3,4-dimethoxy-11-hydroxy-10-hydroxymethyl-6-methyl-5,6,7,8,13,14-hexahydrodibenz[c,g]azecin] | 45 |  | > 500

— patent US3932384A, “Dibenzazecines” (Shionogi & Co., Ltd., priority 1972, dated 1976)
